Measurements reported in patent US6703011B2, “Application of film forming technology to fragrance control release systems; and resultant fragrance control release systems” (International Flavors & Fragrances Inc., priority 1998, dated 2004).
Structures can show the parent of a compound that is named as a salt.

What was measured:
[1] = vapor pressure of fragrance components
[2] = FRAGRANCE PERMEATION TEST (diffusion cell, weight loss); type: physicochemical; conditions: for permeation rate through hydroxypropyl cellulose / permeation rate through polyvinyl alcohol: 35° C., film thickness about 150 microns; for permeation rate through polyvinyl alcohol: FIG. 5C (98% hydrolyzed polyvinyl acetate)
Source text: Referring to FIGS. 4A and 4B, fluid 46 is located in jar 44. Jar 44 has sidearm 45. The fluid 46 reaches fluid level 47. Directly in line with fluid level 47 is membrane 41. The diffusion membrane 41 is held in place with flanges 43 and jar lip 42, using bolts 401a and 401b which secures the flange in place. The sidearm 45 is closed using closure 49. The permeability apparatus is shown using reference numeral 40. The FRAGRANCE PERMEABILITY TEST is based on the use of the apparatus of FIGS. 4A and 4B. The weight of membrane 41 is taken, initially, before being placed within the flange 43 and the jar lip 42. Substance 46 for which the permeability is to be measured is placed into jar 44 to fluid level 47. The apparatus containing fluid 46 remains in place for a fixed period of time. At the end of that period of time, bolts 401a and 401b as well as 401c are loosened, the flange 43 removed and membrane 41 is removed and weighed, thereby gathering sufficient data to determine the permeability of the particular substance 46. The design and development of fragrance controlled release systems is built upon an understanding of the transport mechanisms of aroma chemicals and fragrances through polymers. The ability of the film forming polymers to sustain fragrance release was determined by permeation studies. A special diffusion cell has been developed to measure the steady state permeation of aroma chemicals and fragrances through polymeric films using weight loss. […] The polymeric film is mounted on the diffusion cell and is tightly secured by a glass ring fitted with three screws. […] The diffusant (fragrances, single or mixture of aroma chemicals) is kept in contact with the polymer film throughout the experiment period by filling the diffusion cell arm with the diffusant. The permeation rate of the diffusant is determined by monitoring the changes in the diffusion cell weight. The permeability coefficient, or permeability P, is useful in describing the rate of mass transport through a polymer at steady state. Permeability is related to two basic properties: diffusion and solubility. The permeability coefficient can be expressed by the diffusion coefficient (D) and the solubility coefficient (S). Their relationship is described by the following equation: This value is the actual weight loss that is being measured during our experiments. […] P=DS and the use of neat material (not dilution in a solvent), one can then solve the equation to determine the permeability coefficient using the cell dimension (surface area, A), the thickness of the film (L) and the weight loss data (Q=dM/dt): [formula] The effect of fragrance physical and chemical properties on its permeation rate through the film forming polymers was studied using the experimental setup described, supra. FIG. 5B, described in detail, supra, presents the effect of log10P on the permeation rate of the two model aroma chemicals through hydroxypropyl cellulose. The permeation studies were carried out at 35° C., and the temperature was kept constant within ±0.5 C. throughout the experiment period. […] The aroma chemicals studied, ethyl […] β-pinene, have approximately the same values of vapor pressure, but differ in their solubility in water. Ethyl […] lower value of log10P and thus is more water soluble than β-pinene. The permeation rates on two model aroma chemicals having a high and low log10P through a polyvinyl alcohol, having crystalline and better packed structure, were also studied and are illustrated in FIG. 5C, described in detail, supra. The permeation studies were carried out at 35° C., and the temperature was kept constant within +0.5° C. throughout the experiment period. […] The aroma chemicals studied, ethyl […] β-pinene, have about the same values of vapor pressure, but differ in their solubility in water. Ethyl […] lower value of log10P and thus is more water soluble than β-pinene.

[3] = evaporation rate of aroma chemical without the polymer; type: physicochemical; conditions: 35° C.
Description: The effect of fragrance physical and chemical properties on its permeation rate through the film forming polymers was studied using the experimental setup described, supra. FIG. 5B, described in detail, supra, presents the effect of log10P on the permeation rate of the two model aroma chemicals through hydroxypropyl cellulose. The permeation studies were carried out at 35° C., and the temperature was kept constant within ±0.5 C. throughout the experiment period. The thickness of the films studied was about 150 microns. The aroma chemicals studied, ethyl […] β-pinene, have approximately the same values of vapor pressure, but differ in their solubility in water. Ethyl […] lower value of log10P and thus is more water soluble than β-pinene. The permeation rates on two model aroma chemicals having a high and low log10P through a polyvinyl alcohol, having crystalline and better packed structure, were also studied and are illustrated in FIG. 5C, described in detail, supra. The permeation studies were carried out at 35° C., and the temperature was kept constant within +0.5° C. throughout the experiment period. The thickness of the films studied was about 150 microns. The aroma chemicals studied, ethyl […] β-pinene, have about the same values of vapor pressure, but differ in their solubility in water. Ethyl […] lower value of log10P and thus is more water soluble than β-pinene.

[4] = polymer film material: carboxymethyl cellulose
[5] = polymer film material: polyvinyl alcohol (74% hydrolyzed)
[6] = polymer film material: polyvinyl alcohol (98% hydrolyzed)

| Compound | Vapor Pressure ([1]; at 25° C.) [mm/Hg] | further results |
| --- | --- | --- |
| CC1=CC(C)C(C=O)CC1 (stereo not drawn) | 0.3 | – |
| CC(OC=O)C1CCCC(C)(C)C1 (stereo not drawn) [C.P. FORMATE®, the formic acid ester of 1,1-dimethyl-3(1-hydroxyethyl)cyclohexane, reference compound] | – | Vapor Pressure ([1]; figure legends, unit inferred): 0.1 mmHg; Permeation ([2]; polymer film material: hydroxypropyl cellulose (molecular weight = 100,000)): 2.5 × 10^−4 mg-mm thickness/cm^2 area - mi |
| CC1(C)C2CCC1(C)C(O)C2 (stereo not drawn) [Example 1-borneol, 1-borneol] | 0.02 | – |
| CC(=O)C1(C)CC2=C(CCCC2(C)C)CC1C (stereo not drawn) [ISO E SUPER ®] | 0.002 | – |
| CC(C=O)Cc1ccc(C(C)(C)C)cc1 (stereo not drawn) [LILIAL ®] | 0.003 | – |
| CC(=O)c1cc2c(cc1C)C(C)(C)C(C)CC2(C)C (stereo not drawn) [TONALID ®] | 0.0001 | – |
| CC(=O)OC1CCC(C(C)(C)C)CC1 (stereo not drawn) [VERTENEX ® HC] | 0.03 | – |
| C=CCOC(=O)COCCC(C)C [allyl amyl glycolate] | 0.07 | – |
| CC(=O)OCc1ccccc1 [benzyl acetate] | 0.1 | – |
| CC12CCC(CC1=O)C2(C)C (stereo not drawn) [camphor] | 0.1 | – |
| CC/C=C\CCOC(C)=O [cis-3-hexenyl acetate] | 2.0 | – |
| CC/C=C\CCOC(=O)c1ccccc1O [cis-3-hexenyl salicylate] | 0.0008 | – |
| CC(C)=CCCC(C)CCO (stereo not drawn) [citronellol] | 0.009 | – |
| CC(C=O)Cc1ccc(C(C)C)cc1 (stereo not drawn) [cyclamal] | 0.004 | – |
| C=CC(C)CCCC(C)(C)O (stereo not drawn) [dihydromyrcenol] | 0.09 | – |
| C/C=C(\C)C(=O)OCC [ethyl tiglate] | – | Vapor Pressure ([1]; figure legends, unit inferred): 1.8 mmHg; permeation rate through hydroxypropyl cellulose [2]: exactly the same as its evaporation rate without the polymer; permeation rate through polyvinyl alcohol [2]: about 1.8×10^−4; permeation rate through hydroxypropyl cellulose ([2]; listed as Ethyl tiglate): equal to its evaporation rate; Permeation [2, 4]: 2.8 × 10^−3 mg-mm thickness/cm^2 area - mi; Permeation [2, 5]: 5 × 10^−3 mg-mm thickness/cm^2 area - mi; Permeation [2, 6]: 2 × 10^−3 mg-mm thickness/cm^2 area - mi; overall permeation rate ([2]; through positively charged polymers POLYMER LK and POLYMER LR-400 (FIG. 5I)): 5.8×10^−4 |
| C=CC(C)(CCC=C(C)C)OC(C)=O (stereo not drawn) [linalyl acetate] | 0.07 | – |
| C=CCc1ccc(OC)cc1 [methyl chavicol] | 0.09 | – |
| CCCCCCCC=O [n-octanal] | – | Permeation ([2]; not told): 2.8 × 10^−3 mg-mm thickness/cm^2 area - mi |
| C=C1CCC2CC1C2(C)C (stereo not drawn) [β-pinene] | – | evaporation rate without the polymer [3]: about 0.15; Vapor Pressure ([1]; figure legends, unit inferred): 2.2 mmHg; permeation rate through hydroxypropyl cellulose [2]: 2.7×10^−4; permeation rate through polyvinyl alcohol [2]: about 1.8×10^−4; Permeation [2, 4]: 2.8 × 10^−3 mg-mm thickness/cm^2 area - mi; Permeation [2, 5]: 2.5 × 10^−3 mg-mm thickness/cm^2 area - mi; Permeation [2, 6]: 2 × 10^−3 mg-mm thickness/cm^2 area - mi; permeation rate ([2]; through POLYMER LK (FIG. 5K, graph 596)): 3.9×10^−5; permeation rate ([2]; through POLYMER LR-400 (FIG. 5K, graph 595)): 7.5×10^−5 |

Now from value to compound, other results behind:

| Vapor Pressure ([1]; at 25° C.) [mm/Hg] | Compound | further results |
| --- | --- | --- |
| 0.09 | CC(=O)O[C@@H]1C[C@H]2CC[C@]1(C)C2(C)C (racemic) [isobornyl acetate] | – |
| 0.0003 | CCCCCCC(C=O)=Cc1ccccc1 [hexyl cinnamic aldehyde] | – |
| 0.05 | C=CC(C)(O)CCC=C(C)C (stereo not drawn) [linalool] | – |
| 0.009 | CCCCCCCCCC(C)C=O (stereo not drawn) [methyl nonyl acetaldehyde] | – |
| 0.1 | CC(=O)OC(C)c1ccccc1 (stereo not drawn) [styralyl acetate] | – |
| 0.02 | CC1=CCC(C(C)(C)O)CC1 (stereo not drawn) [α-terpineol] | – |
| 0.006 | CC(=O)/C=C/C1=C(C)CCCC1(C)C [β-ionone] | – |
| 0.02 | OCCc1ccccc1 [β-phenyl ethyl alcohol] | – |
| 0.002 | peach aldehyde coeur | – |
